Where two headings read alike, the source gives them in different places.
Tests used:
A2780 MCTSs = test: (Photo-)cytotoxicity on 3D multicellular tumour spheroids, resazurin assay; assay type: cell-based, human; details: normoxic, dark, one week of incubation, read-out: IC50 Dark
Description: A2780 spheroids (ca. 500 µm in diameter) were treated with increasing concentrations of the compounds and after 24 h of incubation, the medium was replaced with fresh medium, and the cells were either kept in the dark or irradiated for 1 h at 740 nm. Images of the spheroids were taken every 24 h for 3 days.
Additionally, the phototoxicity was tested via a fluorometric resazurin assay in A2780 MCTSs (Table 3). […] (Figure S29). […] This can be attributed to the different biological endpoints and time frames of the assays: spheroid diameter was monitored over 72 h, whereas resazurin measurements were performed after 7 days, potentially capturing delayed cytotoxic effects due to differences in drug cellular uptake.
4 h of incubation, the conversion of resazurin into resorufin was determined upon excitation at 540 nm and measurement of its emission at 590 nm using a Cytation 5 Imaging Reader from BioTek. The obtained data was analysed with the GraphPad Prism software
MCTS were cultured using ultra-low attachment 96 wells plates from Corning (Fisher Scientific 15329740). A2780 cells were seeded at a density of 1,500 cells per well in 100 μL of RPMI. Within 2-3 days, MCTSs have approximately 500 μm of diameter. The formation as well as integrity and diameter of the MCTSs were monitored by microscopy.
(Photo-)cytotoxicity on 3D multicellular tumor spheroids (MCTS)
After 2 days of growing at 37 °C in 5% CO2, the medium was removed, and MCTSs were treated by adding 100 μL of the medium in the well with increasing concentrations of compounds (Os-Pt-Cer, Os, Ceritinib, Oxaliplatin, cisplatin, and Ce6 as additional control). For untreated reference MCTSs, only half of the medium was added with fresh medium. After 24 hours, the MCTSs were divided into two identical groups. The first group was strictly kept in the dark. The second group was irradiated at 740 nm for 1 h (12.60 J·cm-2) using a LUMOS-BIO photoreactor (Atlas Photonics). After the irradiation, all groups were incubated additional 7 days. Thereafter, medium was replaced with 100 μL of fresh medium containing resazurin (0.2 mg/mL). After 24 h of incubation at 37 °C, 5% CO 2, plates were read using a SpectraMaxM2 Microplate Reader ( λexc = 540 nm; λread = 590 nm). Fluorescence data were normalised, and data were fitted using GraphPad Prism Software, and IC 50 was calculated by non - linear regression. Changes in the size and shape of MCTS were monitored every 24 h using Cytation 5 Imaging Reader from BioTek, objective x4. […]
Figure S29. Cell viability graphs after one week of incubation. Studied compounds were incubated for 24 h, thereafter the medium was renovated. For PDT, plates were irradiated at 740 nm for 1h using a LUMOS-BIO photoreactor (Atlas Photonics). For both PDT and regular cytotoxicity, cells were incubated for one week at 37 °C, 5 % CO2. The medium was renovated each two days. Then, the medium was replaced with 100 µL of fresh medium containing 0.2 mg/mL resazurin (Acros Organics). After 24 h of incubation, the fluorescence signal of the resazurin product was recorded (λexc = 540 nm; λem = 590 nm) using a Cytation 5 Cell Imaging Multi-Mode Reader (Biotek - Agilent).
(1 picture or pasted object on this page, not shown here)

A2780 cells = test: (Photo-)cytotoxicity on 2D cell monolayers, resazurin assay; assay type: cell-based, human; details: for IC50: A2780, normoxic, 4 h exposure
Description: (§1) The 2D cytotoxicity and phototoxicity profiles of Os‐Pt‐Cer and controls, were evaluated in a panel of cancerous cell lines, including A2780 (ovarian carcinoma), A549 (non‐small cell lung carcinoma), and MCA205 (murine fibrosarcoma), as well as a non‐cancerous retinal pigment epithelial cell line (RPE‐1). Cells were treated with the compounds (0.003–100 µM) for 4 h, either kept in the dark or irradiated at 670 nm (13.5 J cm^− ^2) (Table S4 and Figure S22) or 740 nm (12.6 J cm^− ^2) and viability was assessed 44 h post‐treatment. To verify robustness, the incubation was extended to 72 h. […]
(§2) Human ovarian cancer (A2780) cells and mouse fibrosarcoma cells (MCA205) were cultured in RPMI media. Retinal pigment epithelium (RPE -1) cells were cultured in DMEM/F -12 medium. Lung cancer cells (A549) were cultured in F -12K medium. These cell lines were complemented with 10% of fetal bovine serum, 100 U/mL penicillin -streptomycin mixture, and maintained in a humidified atmosphere […]
(§3) (Photo-)cytotoxicity on 2D cell monolayers
(§4) The cytotoxicity of the compounds was assessed by measuring cell viability using a resazurin assay.
(§5) The cells were seeded in triplicates in 96 well plates with a density of 10 4 cells per well in 100 μL of media. After 24 h, the medium was removed, and the cells were treated with increasing concentrations (0.003 → 100 µM) of the compounds diluted in cell media , achieving a total volume of 100 μL/well.
(§6) The cells were incubated with the compound for 4 h (final incubation time 48 h) or 24 h (final incubation time 72 h). After this time, the media was removed and replaced with 100 μL of fresh medium. For the phototoxicity studies, the cells were exposed to light with an Atlas Photonics LUMOS BIO irradiation system. Each well was constantly irradiated at 670 nm (60 min, 13.50 J·cm-2) or 740 nm (60 min, 12.60 J·cm-2). During the irradiation, the temperature of the plate was maintained at 37 °C. The cells were grown in the incubator for an additional 44 or 48 h, respectively. For the determination of the dark cytotoxicity, the cells were not irradiated and after the medium exchange directly incubated for 44 h.
(§7) After this time, the medium was replaced with fresh medium containing resazurin (0.2 mg/mL). After […]
(§8) 4 h of incubation, the conversion of resazurin into resorufin was determined upon excitation at 540 nm and measurement of its emission at 590 nm using a Cytation 5 Imaging Reader from BioTek. The obtained data was analysed with the GraphPad Prism software […]
(§9) After 24 h of incubation at 37 °C, 5% CO 2, plates were read using a SpectraMaxM2 Microplate Reader ( λexc = 540 nm; λread = 590 nm). Fluorescence data were normalised, and data were fitted using GraphPad Prism Software, and IC 50 was calculated by non - linear regression. Changes in the size and shape of MCTS were monitored every 24 h using Cytation 5 Imaging Reader from BioTek, objective x4.
(§10) Intracellular distribution by confocal fluorescence microscopy
(§11) 10^4 cells/well (A2780 cells) were seeded in complete medium (RPMI) in µ -slide 8 well (Ibidi) (100 µl/well) and left for 24 h to attach to the bottom. Then, the culture medium was removed , and 100 µl of solution of the corresponding complexes (5 µM) was added. The complexes were incubated with the cells for 4 hours. Thereafter, the medium was removed and replaced by RPMI without phenol red , and Hoechst and MitoTracker Green were added at a final concentration of 1 µg/mL. They were incubated with the cells for 30 min in the dark at 37 °C. Images were collected in a sequential mode in a Leica TCS SP8 confocal microscope with a 60x oil immers ion objective, a line average of 4, and a format of […]
(§12) (MTG)→ 500 -550nm, and 488 nm (complexes)→ 680 -730 nm. The confocal pinhole was 1 Airy unit.
(§13) Images were analysed with LAS X Flim FCS software.
(§14) Intracellular distribution by ICP -MS

RPE‐1 cells = test: as above; assay type: cell-based; details: for IC50: RPE‐1, normoxic, 4 h exposure
Description: as §1, §2, §3, §4, §5, §6, §7, §8, §9, §10, §11, §12, §13, §14

A549 cells = test: as above; assay type: cell-based; details: A549, normoxic, dark, 4 h exposure, total 48 h incubation; read-out: IC50 Dark
Description: as §1, §2, §3, §4, §5, §6, §7, §8, §9, §10, §11, §12, §13, §14

MCA205 cells = test: as above; assay type: cell-based, mouse; details: MCA205, normoxic, dark, 4 h exposure, total 48 h incubation; read-out: IC50 Dark
Description: as §1, §2, §3, §4, §5, §6, §7, §8, §9, §10, §11, §12, §13, §14

[1] = design: method as in not given; details: standard, acetonitrile; ref not given; cited from earlier work
[2] = dark, total 48 h incubation, read-out: IC50 Dark
[3] = Homo sapiens, 740 nm (60 min, 12.60 J·cm^−2), total 48 h, read-out: IC50 Irrad. 740 nm
[4] = Homo sapiens, dark, total 48 h incubation, read-out: IC50 Dark

N.N.[Cl][Pt][Cl] [Cisplatin]
IC50 (A2780 MCTSs): 2 ± 0.4 µM | IC50 (A2780 cells; [2]): 1.92 ± 0.4 µM | IC50 (RPE‐1 cells; [2]): 15.2 ± 0.7 µM | IC50 (A549 cells): 1.11 ± 0.33 µM | IC50 (MCA205 cells): 0.72 ± 0.2 µM

C=CC1=C(C)c2cc3[nH]c(cc4nc(cc5[nH]c(cc1n2)c(C)c5CCC(=O)O)C(CCC(=O)O)=C4C)c(C)c3C=C [PPIX, Protoporphyrin]
PI (IC50 dark/IC50 irradiation 740 nm) (A2780 cells; A2780): ≥6 | IC50 (A2780 cells; [3]): 17.3 ± 0.01 µM | IC50 (A2780 cells; [4]): > 100 µM | IC50 (RPE‐1 cells; [3]): 41.6 ± 0.3 µM | IC50 (RPE‐1 cells; [4]): > 100 µM | PI (IC50 dark/IC50 irradiation 740 nm) (RPE‐1 cells; RPE‐1): ≥2

[Ru+2].c1ccc(-c2ccccn2)nc1.c1ccc(-c2ccccn2)nc1.c1ccc(-c2ccccn2)nc1 [Ru(bpy)3, Tris(2,2'-bipyridyl) ruthenium (II)]
Quantum yield [1]: 0.077 | Singlet oxygen quantum yield [1]: 0.77
